In patent publication US20100068204A1, “4-ARYLOXYQUINOLIN-2(1H)-ONES AS MTOR KINASE AND PI3 KINASE INHIBITORS, FOR USE AS ANTI-CANCER AGENTS” (Wyeth, priority 2008, published 2010) one finds IC50 data, which are given here for 41 molecules.

The structures appear in SMILES notation. pIC50: −log10 of the molar value.

The target of one assay is PI3Kα (Homo sapiens, UniProt P42336). Put plainly: PI3Kα fluorescence polarization assay. The class given is biochemical. As to conditions: 20 μM PIP2, 25 μM ATP. Summed up: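 Kinase reaction in 20 mM HEPES pH 7.5, 2 mM MgCl2, 0.05% CHAPS with final 20 μM diC8-PIP2 and 25 μM ATP, 30-60 min at room temperature. Stopped with 10 nM TAMRA-labelled probe plus 2.5 uM GST-murine GRP; fluorescence polarization read after 90-110 minutes.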

For assay [1], the system named is MDA468 breast tumor cells. In words: In vitro cell growth assay (MTS), MDA468. In kind it is cell-based, human. The note with it: Homo sapiens, 72 h, three days after drug treatment. Summed up: (§1)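 Tumor cells plated ~3000/well; inhibitors in DMSO added one day later (final DMSO 0.25%). After three days of treatment, viable cell density read by MTS conversion, absorbance at 490 nm. Effect expressed relative to untreated control growth.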

The target of another assay is human TOR (FLAG-TOR) (Homo sapiens, UniProt P42345). Put plainly: mTOR enzyme assay (DELFIA format, purified enzyme). The class given is biochemical. The note with it: 800 ng/ml FLAG-TOR, 100 μM ATP, 1.25 μM His6-S6K; read-out: mTOR Kinase IC50.
Assay [2] relates to LNCap prostate tumor cells. Put plainly: In vitro cell growth assay (MTS), LNCap. In kind it is cell-based, human. The note with it: Homo sapiens, LNCaP, 72 h, three days after drug treatment. Summed up:
as §1

PI3Kα, sequence (P42336 whole entry, species assumed): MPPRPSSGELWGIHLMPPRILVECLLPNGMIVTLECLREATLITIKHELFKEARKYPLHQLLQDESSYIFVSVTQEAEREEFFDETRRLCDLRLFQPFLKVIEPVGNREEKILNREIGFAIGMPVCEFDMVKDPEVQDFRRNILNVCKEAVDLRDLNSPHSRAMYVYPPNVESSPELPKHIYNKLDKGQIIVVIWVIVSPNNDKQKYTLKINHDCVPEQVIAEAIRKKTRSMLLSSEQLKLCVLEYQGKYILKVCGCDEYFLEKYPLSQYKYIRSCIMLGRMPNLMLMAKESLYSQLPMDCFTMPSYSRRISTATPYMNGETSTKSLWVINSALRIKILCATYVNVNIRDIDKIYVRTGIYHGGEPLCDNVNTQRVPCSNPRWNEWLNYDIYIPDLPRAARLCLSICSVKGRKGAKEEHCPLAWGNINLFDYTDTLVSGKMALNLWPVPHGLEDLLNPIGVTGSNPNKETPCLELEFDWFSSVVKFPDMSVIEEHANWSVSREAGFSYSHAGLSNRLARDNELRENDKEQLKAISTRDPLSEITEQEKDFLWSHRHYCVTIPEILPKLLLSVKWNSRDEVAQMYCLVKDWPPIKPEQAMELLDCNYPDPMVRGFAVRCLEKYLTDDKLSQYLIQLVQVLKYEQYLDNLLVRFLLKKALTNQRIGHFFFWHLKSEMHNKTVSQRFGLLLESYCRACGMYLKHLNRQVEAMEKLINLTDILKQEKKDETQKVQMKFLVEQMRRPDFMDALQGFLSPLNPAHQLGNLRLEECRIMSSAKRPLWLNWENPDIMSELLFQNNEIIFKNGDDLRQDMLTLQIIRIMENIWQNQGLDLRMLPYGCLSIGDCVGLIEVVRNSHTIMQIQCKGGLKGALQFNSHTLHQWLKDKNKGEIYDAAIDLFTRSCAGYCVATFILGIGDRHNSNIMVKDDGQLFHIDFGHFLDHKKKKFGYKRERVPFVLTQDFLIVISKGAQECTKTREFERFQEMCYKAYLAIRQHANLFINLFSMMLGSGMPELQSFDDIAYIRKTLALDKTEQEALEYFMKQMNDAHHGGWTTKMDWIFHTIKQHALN
PI3Kα, sequence (P27986 whole entry partner, species assumed): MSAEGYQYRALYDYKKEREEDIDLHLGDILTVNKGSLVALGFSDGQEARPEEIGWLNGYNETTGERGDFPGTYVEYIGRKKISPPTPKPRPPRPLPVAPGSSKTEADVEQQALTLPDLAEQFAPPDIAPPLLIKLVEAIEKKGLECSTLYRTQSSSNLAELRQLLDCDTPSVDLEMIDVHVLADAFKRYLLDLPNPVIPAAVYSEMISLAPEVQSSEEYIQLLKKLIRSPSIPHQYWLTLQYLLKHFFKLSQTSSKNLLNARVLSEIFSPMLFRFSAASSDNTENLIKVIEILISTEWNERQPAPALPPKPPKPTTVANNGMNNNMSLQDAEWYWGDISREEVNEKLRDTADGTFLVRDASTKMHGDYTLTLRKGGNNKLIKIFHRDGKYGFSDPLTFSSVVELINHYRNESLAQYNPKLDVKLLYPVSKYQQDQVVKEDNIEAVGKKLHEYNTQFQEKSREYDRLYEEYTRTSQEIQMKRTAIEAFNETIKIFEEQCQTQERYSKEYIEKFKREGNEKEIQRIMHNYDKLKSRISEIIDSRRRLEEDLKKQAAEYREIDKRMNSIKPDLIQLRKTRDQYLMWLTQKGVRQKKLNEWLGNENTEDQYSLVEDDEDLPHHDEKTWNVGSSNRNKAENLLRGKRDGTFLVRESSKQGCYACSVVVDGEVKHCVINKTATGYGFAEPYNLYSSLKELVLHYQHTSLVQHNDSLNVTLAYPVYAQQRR

For `Cn1cc(CN(Cc2ccn(C)n2)c2cccc(Oc3cc(=O)[nH]c4ccccc34)c2)cn1`, the pIC50 (as a rule, the negative decadic logarithm of the IC50, by convention in mol/L) on PI3Kα is 5.34; in assay [1], 5.52; on human TOR (FLAG-TOR), 6.64; in assay [2], 5.52.

In the case of `Cn1cc(CNc2cccc(Oc3cc(=O)[nH]c4ccccc34)c2)cn1`, the pIC50 was 5.32 against PI3Kα, 5.06 in assay [1], 6.77 on human TOR (FLAG-TOR) and 5.40 in assay [2].

Consider `O=c1cc(Oc2cccc(-c3ccc(N4CCOCC4)nc3)c2)c2ccccc2[nH]1`, for which the pIC50 on PI3Kα is less than 5.00; in assay [1] it was less than 4.22; on human TOR (FLAG-TOR), 6.70; in assay [2] it was 4.92.

Consider `CC(C)(C)OC(=O)N1CCN(c2ccc(-c3cccc(Oc4cc(=O)[nH]c5ccccc45)c3)cc2)CC1`, for which the pIC50 was 5.00 against PI3Kα, 4.36 in assay [1], 5.23 at human TOR (FLAG-TOR) and 4.22 in assay [2].

Turning to `O=c1cc(Oc2cccc(-c3cccc(CN4CCOCC4)c3)c2)c2ccccc2[nH]1`, the pIC50 was 5.17 against PI3Kα, 4.52 in assay [1], 6.22 on human TOR (FLAG-TOR) and 5.02 in assay [2].

Take `CC(C)(C)OC(=O)N1CCN(c2ccc(-c3cccc(Oc4cc(=O)[nH]c5ccccc45)c3)cn2)CC1`: the pIC50 was less than 5.00 on PI3Kα, 4.74 in assay [1], 5.43 at human TOR (FLAG-TOR) and less than 4.22 in assay [2].

Regarding `CC(C)(C)OC(=O)N1CC=C(c2cccc(Oc3cc(=O)[nH]c4ccccc34)c2)CC1`, the pIC50 on PI3Kα was 5.02; in assay [1], 4.49; on human TOR (FLAG-TOR), 6.19; in assay [2] it was 4.89.

`O=c1cc(Oc2cccc(-c3ccc(NCc4cccnc4)cc3)c2)c2ccccc2[nH]1`: the pIC50 was 5.15 at PI3Kα, less than 4.22 in assay [1], 5.89 at human TOR (FLAG-TOR) and less than 4.22 in assay [2].

`O=c1cc(Oc2cccc(-c3ccc(NCc4ccncc4)cc3)c2)c2ccccc2[nH]1`: the pIC50 at PI3Kα was 5.28; in assay [1], less than 4.22; on human TOR (FLAG-TOR), 6.15; in assay [2] it was less than 4.22.

On to `CN1CCC(Nc2ccc(-c3cccc(Oc4cc(=O)[nH]c5ccccc45)c3)cc2)CC1`, for which the pIC50 at PI3Kα was 5.10; in assay [1], 5.30; at human TOR (FLAG-TOR) it was 7.30; in assay [2] it was 5.55.

In the case of `O=c1cc(Oc2cccc([N+](=O)[O-])c2)c2ccccc2[nH]1`, the pIC50 against PI3Kα is less than 5.00; in assay [1] it was less than 4.22; on human TOR (FLAG-TOR), 5.65; in assay [2], less than 4.22.

For the molecule `O=c1cc(Oc2ccc3c(c2)OCO3)c2ccccc2[nH]1`, the pIC50 was less than 5.00 at PI3Kα, less than 4.22 in assay [1], 5.82 at human TOR (FLAG-TOR) and less than 4.22 in assay [2].

Turning to `O=c1cc(Oc2cccc(N3CCOCC3)c2)c2ccccc2[nH]1`, the pIC50 against PI3Kα was less than 5.00; in assay [1], 4.22; at human TOR (FLAG-TOR) it was 6.37; in assay [2] it was 5.05.

For the molecule `O=c1cc(Oc2cccc(NCc3ccccn3)c2)c2ccccc2[nH]1`, the pIC50 at PI3Kα is 5.46; in assay [1], 4.92; at human TOR (FLAG-TOR), 6.82; in assay [2] it was 5.24.

For the molecule `O=c1cc(Oc2cccc(NCc3ccncc3)c2)c2ccccc2[nH]1`, the pIC50 on PI3Kα was less than 5.00; in assay [1], 5.00; on human TOR (FLAG-TOR), 6.82; in assay [2] it was 5.30.

Turning to `CN1CCC(Nc2cccc(Oc3cc(=O)[nH]c4ccccc34)c2)CC1`, the pIC50 at PI3Kα was less than 5.00; in assay [1], 4.92; at human TOR (FLAG-TOR), 6.49; in assay [2], 5.22.

Regarding `O=c1cc(Oc2cccc(-c3ccco3)c2)c2ccccc2[nH]1`, the pIC50 against PI3Kα was less than 5.00; in assay [1] it was 6.15; on human TOR (FLAG-TOR), 6.40; in assay [2] it was less than 4.22.

As for `O=c1cc(Oc2cccc(-c3ccc(N4CCNCC4)nc3)c2)c2ccccc2[nH]1`, the pIC50 was less than 5.00 against PI3Kα, 5.15 in assay [1], 6.82 on human TOR (FLAG-TOR) and 5.32 in assay [2].

Turning to `O=c1cc(Oc2cccc(-c3ccc4[nH]ccc4c3)c2)c2ccccc2[nH]1`, the pIC50 at PI3Kα was less than 5.00; in assay [1], 4.64; at human TOR (FLAG-TOR) it was 6.33; in assay [2], 4.92.

With `NS(=O)(=O)c1ccc(-c2cccc(Oc3cc(=O)[nH]c4ccccc34)c2)cc1`, the pIC50 against PI3Kα is less than 5.00; in assay [1] it was 4.22; at human TOR (FLAG-TOR), 6.59; in assay [2], less than 4.22.

With `CS(=O)(=O)Nc1ccc(-c2cccc(Oc3cc(=O)[nH]c4ccccc34)c2)cc1`, the pIC50 against PI3Kα was less than 5.00; in assay [1] it was 4.59; on human TOR (FLAG-TOR), 6.57; in assay [2] it was 5.24.

For `O=c1cc(Oc2cccc(-c3cccc(NCc4cccnc4)c3)c2)c2ccccc2[nH]1`, the pIC50 against PI3Kα was less than 5.00; in assay [1], 4.55; at human TOR (FLAG-TOR), 6.29; in assay [2], 5.10.

In the case of `O=c1cc(Oc2cccc(-c3ccc(NCCCl)cc3)c2)c2ccccc2[nH]1`, the pIC50 against PI3Kα was less than 5.00; in assay [1], 4.96; on human TOR (FLAG-TOR), 6.36; in assay [2], 5.21.

With `CN1CCN(CCNc2ccc(-c3cccc(Oc4cc(=O)[nH]c5ccccc45)c3)cc2)CC1`, the pIC50 on PI3Kα was less than 5.00; in assay [1], 4.64; at human TOR (FLAG-TOR) it was 6.85; in assay [2], 4.92.

For `O=c1cc(Oc2cccc(-c3ccc(NCCN4CCCC4)cc3)c2)c2ccccc2[nH]1`, the pIC50 was less than 5.00 against PI3Kα, 5.35 in assay [1], 6.74 at human TOR (FLAG-TOR) and 5.52 in assay [2].

Consider `CN(C)CCNc1ccc(-c2cccc(Oc3cc(=O)[nH]c4ccccc34)c2)cc1`, for which the pIC50 is 5.30 against PI3Kα, 5.10 in assay [1], 6.74 at human TOR (FLAG-TOR) and 5.32 in assay [2].

`O=c1cc(Oc2cccc(-c3cccs3)c2)c2ccccc2[nH]1`: the pIC50 against PI3Kα is 5.57; in assay [1], 5.42; at human TOR (FLAG-TOR), less than 4.70; in assay [2], less than 4.22.

For `CS(=O)(=O)Nc1cccc(-c2cccc(Oc3cc(=O)[nH]c4ccccc34)c2)c1`, the pIC50 against PI3Kα was 5.45; in assay [1], 4.74; at human TOR (FLAG-TOR) it was 6.24; in assay [2], 5.19.

Consider `O=c1cc(Oc2cccc(-c3ccnc(N4CCNCC4)c3)c2)c2ccccc2[nH]1`, for which the pIC50 was 4.82 on PI3Kα, 5.07 in assay [1], 6.26 at human TOR (FLAG-TOR) and 5.05 in assay [2].

Regarding `COc1ncccc1CNc1cccc(Oc2cc(=O)[nH]c3ccccc23)c1`, the pIC50 against PI3Kα was 5.17; in assay [1], 4.22; on human TOR (FLAG-TOR) it was 6.40; in assay [2], 5.07.

On to `COc1cnc(OC)c(CNc2cccc(Oc3cc(=O)[nH]c4ccccc34)c2)c1`, for which the pIC50 at PI3Kα was 5.71; in assay [1], 4.82; at human TOR (FLAG-TOR), 6.29; in assay [2], 5.05.

`COc1ccc(CNc2cccc(Oc3cc(=O)[nH]c4ccccc34)c2)cn1`: the pIC50 against PI3Kα is 5.39; in assay [1], 4.92; at human TOR (FLAG-TOR), 6.51; in assay [2] it was 5.39.

`CN(C)C/C=C/C(=O)Nc1cccc(-c2cccc(Oc3cc(=O)[nH]c4ccccc34)c2)c1`: the pIC50 against PI3Kα is 4.92; in assay [1] it was 5.10; on human TOR (FLAG-TOR) it was 6.85; in assay [2] it was 5.40.

With `O=c1cc(Oc2cccc(NCc3ccccc3N3CCOCC3)c2)c2ccccc2[nH]1`, the pIC50 against PI3Kα is 5.25; in assay [1] it was 4.62; at human TOR (FLAG-TOR) it was 6.48; in assay [2], 5.05.

With `CC(Nc1cccc(Oc2cc(=O)[nH]c3ccccc23)c1)c1cccnc1` (centres unmarked), the pIC50 against PI3Kα is 5.45; in assay [1] it was 4.96; at human TOR (FLAG-TOR), 6.72; in assay [2], 5.48.

Turning to `CC(Nc1cccc(Oc2cc(=O)[nH]c3ccccc23)c1)c1ccncc1` (centres unmarked), the pIC50 against PI3Kα is 5.12; in assay [1] it was 4.96; at human TOR (FLAG-TOR), 6.85; in assay [2], 5.51.

`O=c1cc(Oc2cccc(NCCc3cccnc3)c2)c2ccccc2[nH]1`: the pIC50 against PI3Kα is less than 5.00; in assay [1], 4.94; at human TOR (FLAG-TOR), 6.92; in assay [2], 5.40.

`O=c1cc(Oc2cccc(NC3CCN(Cc4ccncc4)CC3)c2)c2ccccc2[nH]1`: the pIC50 against PI3Kα is less than 5.00; in assay [1] it was 4.51; on human TOR (FLAG-TOR) it was 6.82; in assay [2] it was 5.19.

For the molecule `O=c1cc(Oc2cccc(NC3CCN(Cc4ccccn4)CC3)c2)c2ccccc2[nH]1`, the pIC50 against PI3Kα is less than 5.00; in assay [1], 4.72; at human TOR (FLAG-TOR), 6.72; in assay [2], 5.19.

`O=c1cc(Oc2cccc(-c3ccc(NC4CCN(Cc5ccncc5)CC4)cc3)c2)c2ccccc2[nH]1`: the pIC50 was less than 5.00 on PI3Kα, 4.89 in assay [1], 6.92 on human TOR (FLAG-TOR) and 5.17 in assay [2].

Take `O=c1cc(Oc2cccc(-c3ccc(NC4CCN(Cc5ccccn5)CC4)cc3)c2)c2ccccc2[nH]1`: the pIC50 is less than 5.00 against PI3Kα, 4.96 in assay [1], 6.96 at human TOR (FLAG-TOR) and 5.28 in assay [2].
